Experimental data published in PubChem BioAssay (NCI).
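Test compounds were applied to cells in 96-well plates for 48 hours at 5 doses. At the GI50, growth is halved. TGI marks complete inhibition of growth.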

Columns and labels:
Test in all cases: NCI tumour cell line growth inhibition, 48 h
SF-268 CNS = tested on: SF-268 CNS
NCI-H23 lung = tested on: NCI-H23 lung
RXF 393 renal = tested on: RXF 393 renal
OVCAR-4 ovarian = tested on: OVCAR-4 ovarian
OVCAR-3 ovarian = tested on: OVCAR-3 ovarian
HOP-62 NSCLC = tested on: HOP-62 NSCLC
SK-MEL-2 melanoma = tested on: SK-MEL-2 melanoma
NCI-H460 lung = tested on: NCI-H460 lung
MCF7 breast = tested on: MCF7 breast
MDA-MB-231 breast = tested on: MDA-MB-231 breast

Structure (SMILES)	TGI (SF-268 CNS) [µM]	TGI (NCI-H23 lung) [µM]	TGI (RXF 393 renal) [µM]	TGI (OVCAR-4 ovarian) [µM]	TGI (OVCAR-3 ovarian) [µM]	TGI (HOP-62 NSCLC) [µM]	TGI (SK-MEL-2 melanoma) [µM]	TGI (NCI-H460 lung) [µM]	TGI (MCF7 breast) [µM]	GI50 (SF-268 CNS) [µM]	GI50 (NCI-H23 lung) [µM]	GI50 (RXF 393 renal) [µM]	GI50 (NCI-H460 lung) [µM]	GI50 (OVCAR-4 ovarian) [µM]	GI50 (OVCAR-3 ovarian) [µM]	GI50 (MCF7 breast) [µM]	GI50 (MDA-MB-231 breast) [µM]	TGI (MDA-MB-231 breast) [µM]	GI50 (SK-MEL-2 melanoma) [µM]	GI50 (HOP-62 NSCLC) [µM]
C[N+](C)(C)CC1CCC(C[N+](C)(C)C)C1=NO (configuration not stated)	> 100	> 100	> 100	> 100	> 100	> 100	> 100	–	–	–	–	–	–	–	–	–	–	–	–	–
COC(=O)Cc1cc(=O)n2c3ccccc3n(C)c2c1C#N	> 100	> 100	> 100	> 100	> 100	> 100	> 100	> 100	–	–	–	–	–	–	–	–	–	–	–	–
CC(C)c1ccc(O)c(Cc2cc(C(C)C)cc(Cc3cc(C(C)C)ccc3O)c2O)c1	4.01	3.15	–	2.68	3.03	3.26	3.06	3.45	–	–	–	–	–	–	–	–	–	–	–	–
FC(F)(F)c1ccccc1C1SCc2nc3ccccc3n21 (configuration not stated)	> 100	> 100	> 100	–	> 100	–	> 100	–	–	–	–	–	–	–	–	–	–	–	–	–
CC(C)(C)N/N=C(/Cc1nc2c3c(ccc2[nH]c1=O)C(=O)c1ccccc1C3=O)C(=O)NC1=C(Cl)C(=O)c2ccccc2C1=O	43.5	> 100	> 100	61.6	> 100	–	> 100	31.3	> 100	–	–	–	–	–	–	–	–	–	–	–
COc1cc(N=Nc2cc(Cc3ccc(N(C)C)cc3)c(N)cc2N(C)C)c2ncccc2c1	2.31	1.34	2.49	0.549	1.08	–	4.17	1.91	0.855	0.593	0.287	1.08	0.519	0.175	0.0406	0.21	0.512	2.17	0.562	–
[Br][Pb]([c]1ccccc1)([c]1ccccc1)[c]1ccccc1	0.35	0.418	0.231	–	0.272	0.505	0.539	0.895	0.303	0.171	0.174	0.0916	0.292	–	0.139	0.159	0.208	0.514	0.218	0.218
CN1C2C=CC(=O)C1C1C(=O)N(c3ccccc3)C(=O)C12 (configuration not stated)	17.3	37.1	–	38.7	6.73	28.6	42	28.9	16.5	3.99	13.2	–	12.7	11.7	2.35	4.01	15.3	37.8	8.12	12.4
CC(=O)CCC1(c2ccccc2)OC(=O)C(C#N)=C1c1ccccc1 (configuration not stated)	> 100	> 100	–	> 100	> 100	> 100	> 100	> 100	–	–	–	–	–	–	–	–	–	–	–	–
CC(C)(O)C1COC2=C1C(=O)c1ccccc1C2=O (configuration not stated)	77.1	38.8	–	> 100	57.8	–	88.6	> 100	40.1	–	–	–	–	–	–	–	–	> 100	–	–
C=CCC(N[C@@H](CO)c1ccccc1)c1ccc2ccccc2n1 (some centres not stated)	–	> 100	> 100	> 100	> 100	> 100	> 100	–	–	–	> 100	> 100	–	> 100	57.4	–	45.8	> 100	> 100	> 100
N=C(N)c1ccc2oc3ccc(C(=N)N)cc3c(=O)c2c1	> 100	> 100	> 100	> 100	> 100	–	> 100	> 100	> 100	–	–	–	–	–	–	–	–	> 100	–	–
Cc1cc(N(CCC#N)CCC#N)ccc1/C=C(\NC(=O)/C=C/c1ccccc1)C(=O)Nc1ccccc1Cl	> 100	> 100	> 100	> 100	> 100	–	> 100	> 100	–	–	–	–	–	–	–	–	–	–	–	–
COc1ccc(-c2nsc3c2NC(=O)CC3c2ccsc2)cc1 (configuration not stated)	> 100	73.8	> 100	> 100	0.611	> 100	–	9.49	> 100	1.34	0.375	0.367	0.228	3.47	0.211	0.32	1.26	> 100	–	0.371
Nc1ccc(CC[C@H]2CCC/C=C/[C@@H]3C[C@H](O)C[C@H]3[C@H](O)/C=C/C(=O)O2)cc1	> 100	1.06	0.0621	2.73	0.0769	–	0.18	> 100	–	0.0351	0.0379	0.0215	0.043	0.0339	0.0282	–	0.0212	0.0421	0.0381	0.0463
CCCCCCCCCCCCCCCCCc1nc(Cl)nc(Cl)c1Cl	> 100	> 100	> 100	> 100	> 100	> 100	–	> 100	> 100	–	–	–	–	–	–	–	–	> 100	–	–
O=C1C(Cl)=C(Nc2ccc(S(=O)(=O)c3ccc(NC4=C(Cl)C(=O)c5ccccc5C4=O)cc3)cc2)C(=O)c2ccccc21	–	3.63	2.96	–	–	6.52	–	6.53	–	–	1.81	1.6	2.36	–	–	–	1.61	3.51	–	2.14
Cc1c(Cl)ccc2c1NC(=O)C2(O)CC(=O)c1ccc(Cl)cc1 (configuration not stated)	> 100	> 100	> 88.5	> 100	> 100	> 100	> 64.2	> 63.3	–	–	–	–	–	–	–	–	–	–	–	–
Cc1cc(Cl)ccc1N=C1NC(=O)C(CC(=O)Nc2cccc(Cl)c2)S1 (configuration not stated)	> 100	> 100	72.6	> 100	> 100	> 100	> 100	> 100	–	–	–	–	–	–	–	–	–	–	–	–
COC(=O)C1=NC(=S)NC(c2ccccc2)C1c1nc2ccccc2o1 (configuration not stated)	> 50	> 50	> 50	> 50	> 50	> 50	> 50	> 50	–	–	–	–	–	–	–	–	–	–	–	–
